What was measured:
[1] = Therapeutic Index (IC50/EC50) of the compound
H9 [2] = assay: Evaluated for the anti-HIV activity against HIV-1 replication in mock-infected H9 cells; type: functional, cell-based; conditions: Homo sapiens
H9 [3] = assay: Evaluated for the anti-HIV activity against HIV-1 replication in H9 lymphocyte cells; type: functional, cell-based; conditions: Homo sapiens
[4] = Therapeutic Index (IC50/EC50) of the compound; Toxic at all concentrations
H9 [5] = assay: Evaluated for the anti-HIV activity against HIV-1 replication in H9 lymphocyte cells; Toxic at all concentrations; type: functional, cell-based; conditions: Homo sapiens

EC50 (H9 [3]) | SMILES | selectivity ratio [1] | IC50 (H9 [2]) | Ratio [4] | Activity (H9 [5])
 | C=C(C)[C@@H]1CC[C@]2(C(=O)O)CC[C@]3(C)[C@H](CC[C@@H]4[C@@]5(C)CC[C@H](OC(=O)COCC(=O)O)C(C)(C)[C@@H]5CC[C@]43C)[C@@H]12 | 1170 |  |  | 
0.4 µM | C=C(C)[C@@H]1CC[C@]2(COC(=O)CC(C)(C)C(=O)O)CC[C@]3(C)[C@H](CC[C@@H]4[C@@]5(C)CC[C@H](OC(=O)C(C)(C)CC(=O)O)C(C)(C)[C@@H]5CC[C@]43C)[C@@H]12 | 96.5 | 38.6 µM |  | 
 | C=C(C)[C@@H]1CC[C@]2(COC(=O)CC(C)(C)CC(=O)O)CC[C@]3(C)[C@H](CC[C@@H]4[C@@]5(C)CC[C@H](OC(=O)CC(C)(C)CC(=O)O)C(C)(C)[C@@H]5CC[C@]43C)[C@@H]12 | 21500 |  |  | 
0.00087 µM | C=C(C)[C@@H]1CC[C@]2(COC(=O)C(C)(C)CC(=O)O)CC[C@]3(C)[C@H](CC[C@@H]4[C@@]5(C)CC[C@H](OC(=O)CC(C)(C)C(=O)O)C(C)(C)[C@@H]5CC[C@]43C)[C@@H]12 | 42400 | 36.9 µM |  | 
0.02 µM | C=C(C)[C@@H]1CC[C@]2(COC(=O)CC(C)(C)C(=O)O)CC[C@]3(C)[C@H](CC[C@@H]4[C@@]5(C)CC[C@H](OC(=O)CC(C)(C)C(=O)O)C(C)(C)[C@@H]5CC[C@]43C)[C@@H]12 | 1680 | 33.6 µM |  | 
0.18 µM | C=C(C)[C@@H]1CC[C@]2(COC(=O)C(C)(C)CC(=O)O)CC[C@]3(C)[C@H](CC[C@@H]4[C@@]5(C)CC[C@H](O)C(C)(C)[C@@H]5CC[C@]43C)[C@@H]12 | 159 | 28.6 µM |  | 
< 0.18 µM | C=C(C)[C@@H]1CC[C@]2(COC(=O)CC(C)(C)C(=O)O)CC[C@]3(C)[C@H](CC[C@@H]4[C@@]5(C)CC[C@H](O)C(C)(C)[C@@H]5CC[C@]43C)[C@@H]12 | > 207 | 37.4 µM |  | 
 | C=C(C)[C@@H]1CC[C@]2(COC(=O)C(C)(C)CC(=O)O)CC[C@]3(C)[C@H](CC[C@@H]4[C@@]5(C)CC[C@H](OC(=O)C(C)(C)CC(=O)O)C(C)(C)[C@@H]5CC[C@]43C)[C@@H]12 |  |  | Toxic at all concentrations | Toxic at all concentrations
< 0.00035 µM | C=C(C)[C@@H]1CC[C@]2(C(=O)O)CC[C@]3(C)[C@H](CC[C@@H]4[C@@]5(C)CC[C@H](OC(=O)CC(C)(C)C(=O)O)C(C)(C)[C@@H]5CC[C@]43C)[C@@H]12 [BEVIRIMAT] | > 20000 |  |  | 

From ChEMBL document CHEMBL1134740, “3,28-Di-O-(dimethylsuccinyl)-betulin isomers as anti-HIV agents” (Bioorg Med Chem Lett, 2001)
